Data reported in patent publication US7786141B2 (Vertex Pharmaceuticals Incorporated, priority 2004, dated 2010).

Experiments:
M1 muscarinic receptor = biological target: T1, M1 muscarinic receptor (Homo sapiens, UniProt P11229); experiment: Functional mobilization of intracellular calcium (FLIPR) in M1-CHO cells; format: cell-based; details: Table 4; for Emax: 100% efficacy is the maximum response obtained with the Carbachol control; for M1 Activity: modulating M1 receptor
T1 construct: expressed in transfected cells; host or cells: CHO (M1-CHO)
T1 sequence (P11229 1-460): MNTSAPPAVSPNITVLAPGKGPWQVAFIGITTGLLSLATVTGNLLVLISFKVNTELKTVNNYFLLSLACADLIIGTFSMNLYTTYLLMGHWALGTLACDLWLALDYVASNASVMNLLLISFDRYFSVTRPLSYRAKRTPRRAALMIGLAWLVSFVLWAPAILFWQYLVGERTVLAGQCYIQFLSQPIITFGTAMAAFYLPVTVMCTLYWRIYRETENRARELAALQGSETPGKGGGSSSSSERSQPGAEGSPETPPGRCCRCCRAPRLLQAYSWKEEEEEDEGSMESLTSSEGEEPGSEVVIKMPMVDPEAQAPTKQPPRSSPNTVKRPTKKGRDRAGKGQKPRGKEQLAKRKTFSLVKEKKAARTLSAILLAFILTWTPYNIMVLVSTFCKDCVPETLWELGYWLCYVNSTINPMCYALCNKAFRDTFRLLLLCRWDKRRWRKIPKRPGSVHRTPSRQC
Outline: (§1)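 Two modes: direct compound addition for agonism, or 15 min compound pre-incubation (or co-application) before carbachol at EC80 for inhibition. Calcium signal from Fluo-3 AM or Calcium 3 dye in CHO cells, 1 mM probenecid, pH 7.4, read 60 sec at 488/540 nm; DMSO 0.5% final.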

M4 muscarinic receptor = biological target: T2, M4 muscarinic receptor (Homo sapiens, UniProt P08173); experiment: Functional mobilization of intracellular calcium (FLIPR) in M4-CHO cells; format: cell-based; details: Table 4; for Emax: 100% efficacy is the maximum response obtained with the Carbachol control; for M4 Activity: modulating M4 receptor
T2 construct: expressed in transfected cells; host or cells: CHO (M4-CHO)
T2 sequence (P08173 1-479): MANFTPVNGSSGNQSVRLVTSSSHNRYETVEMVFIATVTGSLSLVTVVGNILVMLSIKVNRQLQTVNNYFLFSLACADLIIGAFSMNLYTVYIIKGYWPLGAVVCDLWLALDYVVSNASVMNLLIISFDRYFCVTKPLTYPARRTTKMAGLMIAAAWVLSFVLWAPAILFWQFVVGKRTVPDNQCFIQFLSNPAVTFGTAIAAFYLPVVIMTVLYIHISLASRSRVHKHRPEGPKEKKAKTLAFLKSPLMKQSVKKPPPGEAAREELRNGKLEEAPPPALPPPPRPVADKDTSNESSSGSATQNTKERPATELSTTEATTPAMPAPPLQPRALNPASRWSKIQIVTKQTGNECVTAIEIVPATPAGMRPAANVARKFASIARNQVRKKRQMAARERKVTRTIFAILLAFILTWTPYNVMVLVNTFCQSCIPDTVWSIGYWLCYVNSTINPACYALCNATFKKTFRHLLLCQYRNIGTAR
Outline: as §1

SMILES | Emax (M1 muscarinic receptor) [%] | M1 Activity (M1 muscarinic receptor) | Emax (M4 muscarinic receptor) [%] | M4 Activity (M4 muscarinic receptor)
O=C1CCCN1[C@H]1CCC2(CCN(CC3CCCCC3)CC2)c2ccccc21 [compound 647] | 25 to 100 | xxx (activity was measured to be less than 2.0 μM) | 25 to 100 | xxx (activity was measured to be less than 2.0 μM)
CCOC(=O)N1CCC(N2CCC3(CC2)CN(C(C)=O)c2ccc(-c4cccc(OC)c4)cc23)CC1 [compound 648] | 25 to 100 | xx (activity was measured to be between 2.0 μM and 5.0 μM) | < 25 | x (activity was measured to be greater than 5.0 μM)
CN(C)C(=O)N1CC2(CCN(C3CCN(C(=O)c4cccs4)CC3)CC2)c2cc(F)ccc21 [compound 649] | 25 to 100 | xxx (activity was measured to be less than 2.0 μM) | < 25 | xxx (activity was measured to be less than 2.0 μM)
O=C(N[C@H]1CC2(CCN([C@@H]3CC4CC[C@@H]3C4)CC2)c2ccccc21)C1CC1 [compound 650] | 25 to 100 | xxx (activity was measured to be less than 2.0 μM) | 25 to 100 | xxx (activity was measured to be less than 2.0 μM)
CN(C)C(=O)N1CC2(CCN(C[C@H]3CCN(C(=O)OCC4CC4)C3)CC2)c2cc(F)ccc21 [compound 651] | 25 to 100 | xxx (activity was measured to be less than 2.0 μM) | 25 to 100 | xxx (activity was measured to be less than 2.0 μM)
CC(=O)N[C@H]1CCC2(CCN(C[C@H]3C[C@H]4C=CC3C4)CC2)c2ccccc21 [compound 652] | 25 to 100 | xxx (activity was measured to be less than 2.0 μM) | 25 to 100 | xxx (activity was measured to be less than 2.0 μM)
CCOC(=O)N1CCC(N2CCC3(CC2)CN(C(C)=O)c2c(-c4ccc(C(F)(F)F)cc4)cccc23)CC1 [compound 653] | 25 to 100 | x (activity was measured to be greater than 5.0 μM) | 25 to 100 | x (activity was measured to be greater than 5.0 μM)
CC(=O)N[C@H]1CCC2(CCN(CC3CC4CCC3C4)CC2)c2ccccc21 (stereo partly shown) [compound 655] | 25 to 100 | xxx (activity was measured to be less than 2.0 μM) | 25 to 100 | xxx (activity was measured to be less than 2.0 μM)
CCC#CCOC(=O)N1CCC(N2CCC3(CC2)CN(C(C)=O)c2ccccc23)CC1 [compound 656] | 25 to 100 | xxx (activity was measured to be less than 2.0 μM) | 25 to 100 | xxx (activity was measured to be less than 2.0 μM)
c1ccc2c(c1)CCCC21CCN(C2C[C@@H]3CC[C@@H](C2)C3)CC1 (stereo partly shown) [compound 657] | 25 to 100 | xx (activity was measured to be between 2.0 μM and 5.0 μM) | 25 to 100 | xxx (activity was measured to be less than 2.0 μM)
COCCOC(=O)N1CCC(N2CCC3(CC2)CN(CCOC)c2ccc(F)cc23)CC1 [compound 658] | 25 to 100 | xxx (activity was measured to be less than 2.0 μM) | 25 to 100 | xxx (activity was measured to be less than 2.0 μM)
Cc1cnc(C)c(N2CCC(N3CCC4(CC3)CN(C(=O)N(C)C)c3ccc(F)cc34)CC2)n1 [compound 659] | 25 to 100 | xxx (activity was measured to be less than 2.0 μM) | 25 to 100 | xxx (activity was measured to be less than 2.0 μM)
CN(C)C(=O)N1CC2(CCN(C[C@H]3CCN(c4cnccn4)C3)CC2)c2cc(F)ccc21 [compound 660] | > 100 | xxx (activity was measured to be less than 2.0 μM) | > 100 | xxx (activity was measured to be less than 2.0 μM)
